As a reminder, the IC50 is the midpoint of a concentration-inhibition curve.

Structures can show the parent of a compound that is named as a salt.

For the first experiment, the target named is Pim-1 (Homo sapiens (Human), UniProt P11309). The experiment is described as follows: Pim-Mn enzyme assay (HTRF, 384-well), Pim-1. The conditions noted are these: Pim-1 enzyme 5 pM, ATP 1.5 μM, BAD (S112) 0.5 μM, HTRF, 22-point curve; read-out: Pim-1-Mn IC50 IP. The class given is biochemical. Background: Time-resolved FRET reads energy transfer from a long-lived donor to a nearby acceptor.
Sequence of Pim-1 (P11309 whole entry): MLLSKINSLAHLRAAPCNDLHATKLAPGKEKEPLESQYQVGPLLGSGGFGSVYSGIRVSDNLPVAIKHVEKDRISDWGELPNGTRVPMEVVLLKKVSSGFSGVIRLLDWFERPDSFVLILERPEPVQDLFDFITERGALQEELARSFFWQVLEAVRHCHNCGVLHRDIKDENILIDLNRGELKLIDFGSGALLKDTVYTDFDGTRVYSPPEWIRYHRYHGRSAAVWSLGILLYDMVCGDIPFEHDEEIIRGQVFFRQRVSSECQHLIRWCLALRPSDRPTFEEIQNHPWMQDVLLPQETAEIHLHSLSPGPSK
For the molecule `Cc1nc2cccc(-c3cc4c([nH]3)CCCNC4=O)c2nc1NC(C)(C)C` [Example 305, 2-(3-(tert-butylamino)-2-methylquinoxalin-5-yl)-5,6,7,8-tetrahydropyrrolo[3,2-c]azepin-4(1H)-one], the half-inhibitory concentration (IC50) was found to be 2.63 nM.

On to `CC(=O)N1CCc2[nH]c(-c3cccc4nc(C)c(NC(C)(C)C)nc34)cc2C1=O` [Example 315, 5-acetyl-2-(3-(tert-butylamino)-2-methylquinoxalin-5-yl)-6,7-dihydro-1H-pyrrolo[3,2-c]pyridin-4(5H)-one], for which the IC50 came out at 35.2 nM. For `Cc1nc2cccc(-c3cc4c([nH]3)CCNC4=O)c2nc1NC(C)(C)CNC(=O)OC(C)(C)C` [Example 339, tert-butyl (2-methyl-2-((3-methyl-8-(4-oxo-4,5,6,7-tetrahydro-1H-pyrrolo[3,2-c]pyridin-2-yl)-2-quinoxalinyl)amino)propyl)carbamate], the half-maximal inhibitory concentration (IC50) is 50.8 nM. As to `Cc1nc2cccc(-c3cc4c([nH]3)CCNC4=O)c2nc1N[C@H]1C[C@@H](N)C1` [Example 435, 2-(3-((cis-3-aminocyclobutyl)amino)-2-methylquinoxalin-5-yl)-6,7-dihydro-1H-pyrrolo[3,2-c]pyridin-4(5H)-one hydrochloride], the concentration for half-maximal inhibition (IC50) was determined as 0.347 nM.

The target of a further experiment is Pim-2 (Homo sapiens (Human), UniProt Q9P1W9). The experiment is described as follows: Pim-Mn enzyme assay (HTRF, 384-well), Pim-2. Format: biochemical. The conditions noted are these: Pim-2 enzyme 0.5 pM, ATP 1.5 μM, BAD (S112) 0.5 μM, HTRF, 22-point curve; read-out: Pim-2-Mn IC50 IP.
Sequence of Pim-2 (Q9P1W9 whole entry): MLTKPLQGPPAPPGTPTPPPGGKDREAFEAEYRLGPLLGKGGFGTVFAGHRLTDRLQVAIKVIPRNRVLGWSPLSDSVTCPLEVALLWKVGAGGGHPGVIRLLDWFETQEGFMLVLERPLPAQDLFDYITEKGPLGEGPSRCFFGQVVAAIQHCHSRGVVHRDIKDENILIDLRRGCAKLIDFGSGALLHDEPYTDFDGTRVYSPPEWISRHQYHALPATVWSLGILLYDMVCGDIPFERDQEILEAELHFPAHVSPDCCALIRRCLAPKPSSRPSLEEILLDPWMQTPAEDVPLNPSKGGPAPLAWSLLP
As for `C[C@H]1NC(=O)c2cc(-c3cccc4c(=O)[nH]c(N(C)C(C)(C)C)nc34)[nH]c21` [Example 407, 2-(tert-butyl(methyl)amino)-8-((6R)-6-methyl-4-oxo-1,4,5,6-tetrahydropyrrolo[3,4-b]pyrrol-2-yl)-4(3H)-quinazolinone], the IC50 is 0.4 nM.

The test system of the next experiment is KMS-12-BM cell lines. The experiment is described as follows: KMS12 #2 flow cytometry assay (phospho-BAD Ser112). The conditions noted are these: Homo sapiens, 110 min; KMS-12-BM cells, pBAD Ser112 by flow cytometry, 110 min with compound; read-out: KMS-12-Flow IC50 IP. Format: cell-based. Background: Flow cytometry measures light scatter and fluorescence of single cells or particles in a stream.
In the case of `Cc1nc2cccc(-c3cc4c(n3C)C(CO)NC4=O)c2nc1NC(C)(C)C` (racemic) [Example 470, (R)-2-(3-(tert-butylamino)-2-methylquinoxalin-5-yl)-6-(hydroxymethyl)-1-methyl-5,6-dihydropyrrolo[3,4-b]pyrrol-4(1H)-one and (S)-2-(3-(tert-butylamino)-2-methylquinoxalin-5-yl)-6-(hydroxymethyl)-1-methyl-5,6-dihydropyrrolo[3,4-b]pyrrol-4(1H)-one], the half-maximal inhibitory concentration (IC50) worked out at 1280 nM. Regarding `Cc1nc2ccc(F)c(-c3cc4c([nH]3)[C@@H](C)NC4=O)c2nc1NC(C)(C)C` [Example 297, (6R)-2-(3-(tert-butylamino)-6-fluoro-2-methyl-5-quinoxalinyl)-6-methyl-5,6-dihydropyrrolo[3,4-b]pyrrol-4(1H)-one], the IC50 came to 28.4 nM.

Turning to `Cc1nc2ccc(F)c(-c3cc4c([nH]3)[C@H](C)NC4=O)c2nc1NC(C)(C)C` [Example 298, (6S)-2-(3-(tert-butylamino)-6-fluoro-2-methyl-5-quinoxalinyl)-6-methyl-5,6-dihydropyrrolo[3,4-b]pyrrol-4(1H)-one], the half-maximal inhibitory concentration (IC50) was 57.1 nM. Still for that read-out and setting: next, `Cc1nc2cccc(-c3cc4c([nH]3)CCN/C4=N\O)c2nc1NC(C)(C)C` [Example 300, (E/Z)-2-(3-(tert-butylamino)-2-methylquinoxalin-5-yl)-6,7-dihydro-1H-pyrrolo[3,2-c]pyridin-4(5H)-one oxime]: > 10000 nM. `Cc1nc2cccc(-c3cc4c([nH]3)CCCNC4=O)c2nc1NC(C)(C)C` [Example 305, 2-(3-(tert-butylamino)-2-methylquinoxalin-5-yl)-5,6,7,8-tetrahydropyrrolo[3,2-c]azepin-4(1H)-one]: the IC50 is 1640 nM. For `CC(=O)N1CCc2[nH]c(-c3cccc4nc(C)c(NC(C)(C)C)nc34)cc2C1=O` [Example 315, 5-acetyl-2-(3-(tert-butylamino)-2-methylquinoxalin-5-yl)-6,7-dihydro-1H-pyrrolo[3,2-c]pyridin-4(5H)-one], the IC50 came out at 895 nM.

In the case of `Cc1nc2cccc(-c3cc4c([nH]3)[C@H](C)NC4=O)c2nc1NC(C)(C)C` [Example 327, (6S)-2-(3-(tert-butylamino)-2-methyl-5-quinoxalinyl)-6-methyl-5,6-dihydropyrrolo[3,4-b]pyrrol-4(1H)-one], the half-maximal inhibitory concentration (IC50) was 98.6 nM. On the same count and under the same terms, next, `Cc1nc2cccc(-c3cc4c([nH]3)[C@@H](C)NC4=S)c2nc1NC(C)(C)C` [Example 332, (6R)-2-(3-(tert-butylamino)-2-methyl-5-quinoxalinyl)-6-methyl-5,6-dihydropyrrolo[3,4-b]pyrrole-4(1H)-thione]: > 40000 nM; `Cc1nc2cccc(-c3cc4c([nH]3)CCNC4=O)c2nc1NC(C)(C)CCS(C)(=O)=O` [Example 338, 2-(3-((1,1-dimethyl-3-(methylsulfonyl)propyl)amino)-2-methyl-5-quinoxalinyl)-1,5,6,7-tetrahydro-4H-pyrrolo[3,2-c]pyridin-4-one]: 14300 nM; `Cc1nc2cccc(-c3cc4c([nH]3)CCNC4=O)c2nc1NC(C)(C)CNC(=O)OC(C)(C)C` [Example 339, tert-butyl (2-methyl-2-((3-methyl-8-(4-oxo-4,5,6,7-tetrahydro-1H-pyrrolo[3,2-c]pyridin-2-yl)-2-quinoxalinyl)amino)propyl)carbamate]: 2520 nM. Still for that read-out and setting: with `CC(C)(C)Nc1ccc2cccc(-c3cc4c([nH]3)CCNC4=O)c2n1` [Example 340, 2-(2-(tert-butylamino)-8-quinolinyl)-1,5,6,7-tetrahydro-4H-pyrrolo[3,2-c]pyridin-4-one] the figure was 595 nM. Still for that read-out and setting: with `Cc1nc2cccc(-c3[nH]c4c(c3Cl)C(=O)NCC4)c2nc1NC(C)(C)C` [Example 348, 2-(3-(tert-butylamino)-2-methyl-5-quinoxalinyl)-3-chloro-1,5,6,7-tetrahydro-4H-pyrrolo[3,2-c]pyridin-4-one] the figure was 190 nM; with `Cc1nc2cccc(-c3cc4c([nH]3)[C@@H](C)NC4=O)c2nc1NCC(F)F` [Example 382, (R)-2-(3-((2,2-difluoroethyl)amino)-2-methylquinoxalin-5-yl)-6-methyl-5,6-dihydropyrrolo[3,4-b]pyrrol-4(1H)-one], 82.5 nM.

With `Cc1nc2cccc(-c3cc4c([nH]3)[C@H](C)NC4=O)c2nc1NCC(F)F` [Example 383, (S)-2-(3-((2,2-difluoroethyl)amino)-2-methylquinoxalin-5-yl)-6-methyl-5,6-dihydropyrrolo[3,4-b]pyrrol-4(1H)-one], the IC50 turned out to be 445 nM.

On to `C[C@H]1NC(=O)c2cc(-c3c(F)ccc4c(=O)n(C)c(NC(C)(C)C)nc34)[nH]c21` [Example 405, 2-(tert-butylamino)-7-fluoro-3-methyl-8-((6R)-6-methyl-4-oxo-1,4,5,6-tetrahydropyrrolo[3,4-b]pyrrol-2-yl)-4(3H)-quinazolinone], for which the half-inhibitory concentration (IC50) came out at 28 nM. Same read-out and setting: next, `CC(C)n1c(NC(C)(C)C)nc2c(-c3cc4c([nH]3)[C@@H](C)NC4=O)cccc2c1=O` [Example 406, 2-(tert-butylamino)-3-(1-methylethyl)-8-((6R)-6-methyl-4-oxo-1,4,5,6-tetrahydropyrrolo[3,4-b]pyrrol-2-yl)-4(3H)-quinazolinone]: 30 nM.

On to `C[C@H]1NC(=O)c2cc(-c3cccc4c(=O)[nH]c(N(C)C(C)(C)C)nc34)[nH]c21` [Example 407, 2-(tert-butyl(methyl)amino)-8-((6R)-6-methyl-4-oxo-1,4,5,6-tetrahydropyrrolo[3,4-b]pyrrol-2-yl)-4(3H)-quinazolinone], for which the IC50 was 144 nM. As for `Cc1nc2cccc(-c3cc4c([nH]3)CCNC4=O)c2nc1-c1cccnc1Cl` [Example 410, 2-(3-(2-chloro-3-pyridinyl)-2-methyl-5-quinoxalinyl)-1,5,6,7-tetrahydro-4H-pyrrolo[3,2-c]pyridin-4-one], the IC50 was found to be 21700 nM. Same read-out and setting: with `Cc1nc2cccc(-c3cc4c([nH]3)CCNC4=O)c2nc1-c1cnccc1Cl` [Example 412, 2-(3-(4-chloro-3-pyridinyl)-2-methyl-5-quinoxalinyl)-1,5,6,7-tetrahydro-4H-pyrrolo[3,2-c]pyridin-4-one] the figure was 21800 nM; with `Cc1nc2cccc(-c3cc4c([nH]3)CCNC4=O)c2nc1-c1ccc(N)cc1Cl` [Example 413, 2-(3-(4-amino-2-chlorophenyl)-2-methyl-5-quinoxalinyl)-1,5,6,7-tetrahydro-4H-pyrrolo[3,2-c]pyridin-4-one], > 40000 nM; with `Cc1nc2cccc(-c3cc4c([nH]3)CCNC4=O)c2nc1-c1c(F)cccc1Cl` [Example 414, 2-(3-(2-chloro-6-fluorophenyl)-2-methyl-5-quinoxalinyl)-1,5,6,7-tetrahydro-4H-pyrrolo[3,2-c]pyridin-4-one], 5860 nM. Consider `Cn1c(NC(C)(C)C)nc2c(-c3cc4c([nH]3)CNC4=O)cccc2c1=O` [Example 419, 2-(tert-butylamino)-3-methyl-8-(4-oxo-1,4,5,6-tetrahydropyrrolo[3,4-b]pyrrol-2-yl)-4(3H)-quinazolinone], for which the IC50 was determined as 48.3 nM. The same measure, in the same setting: with `Cc1nc2cccc(-c3cc4c([nH]3)CCNC4=O)c2nc1N[C@H]1C[C@@H](N)C1` [Example 435, 2-(3-((cis-3-aminocyclobutyl)amino)-2-methylquinoxalin-5-yl)-6,7-dihydro-1H-pyrrolo[3,2-c]pyridin-4(5H)-one hydrochloride] the figure was 3000 nM; with `Cc1nc2cccc(-c3cc4c([nH]3)CCNC4=O)c2nc1N[C@H]1C[C@@H](NCC(F)(F)F)C1` [Example 444], 471 nM; with `Cn1c(NC(C)(C)C)nc2c(-c3cc4n(c3)CCNC4=O)cccc2c1=O` [Example 449, 2-(tert-butylamino)-3-methyl-8-(1-oxo-1,2,3,4-tetrahydropyrrolo[1,2-a]pyrazin-7-yl)-4(3H)-quinazolinone], 429 nM. Same read-out and setting: with `Cn1c(NC(C)(C)C)nc2c(-c3cc4c([nH]3)C3(CC3)NC4=O)cccc2c1=O` [Example 456, 2′-(2-(tert-butylamino)-3-methyl-4-oxo-3,4-dihydro-8-quinazolinyl)-1′H-spiro[cyclopropane-1,6′-pyrrolo[3,4-b]pyrrol]-4′(5′H)-one] the figure was 29.4 nM; with `Cc1nc2cccc(-c3cc4c([nH]3)C(CCN)NC4=O)c2nc1NC(C)(C)C` (centres unmarked) [Example 463, 6-(2-aminoethyl)-2-(3-(tert-butylamino)-2-methyl-5-quinoxalinyl)-5,6-dihydropyrrolo[3,4-b]pyrrol-4(1H)-one], 9 nM. For the molecule `C[C@H]1NC(=O)c2cc(-c3cccc4c(=O)n(C5CC5)c(NC(C)(C)C)nc34)[nH]c21` [Example 475, 2-(tert-butylamino)-3-cyclopropyl-8-((6R)-6-methyl-4-oxo-1,4,5,6-tetrahydropyrrolo[3,4-b]pyrrol-2-yl)-4(3H)-quinazolinone], the half-maximal inhibitory concentration (IC50) came out at 28 nM.

Still in this experiment, the particulars now being: Homo sapiens, KMS-12-BM, 110 min, read-out: KMS-12-Flow IC50 IP.
With `CCn1c(NC(C)(C)C)nc2c(-c3cc4c([nH]3)[C@@H](C)NC4=O)cccc2c1=O` [Example 481, (R)-2-(tert-butylamino)-3-ethyl-8-(6-methyl-4-oxo-1,4,5,6-tetrahydropyrrolo[3,4-b]pyrrol-2-yl)quinazolin-4(3H)-one], the concentration for half-maximal inhibition (IC50) was determined as 20 nM.

Staying with this experiment, now noted: KMS-12-BM cells, pBAD Ser112 by flow cytometry, 110 min with compound; read-out: KMS-12-Flow IC50 IP.
For the molecule `Cc1nc2cccc(-c3cc4c([nH]3)CCNC4=O)c2nc1N[C@H]1C[C@@H](N2CCOC2=O)C1` [Example 443, 3-((1s,3s)-3-((3-methyl-8-(4-oxo-4,5,6,7-tetrahydro-1H-pyrrolo[3,2-c]pyridin-2-yl)quinoxalin-2-yl)amino)cyclobutyl)oxazolidin-2-one], the half-maximal inhibitory concentration (IC50) is > 40000 nM.
